Results on 22 molecules are retold here after US5563142A, “Diaromatic substituted compounds as anti-HIV-1 agents” (The Upjohn Company, priority 1994, dated 1996).

pEC50, pIC50: −log10 of the molar value. Counter-ions that a name gives are not always drawn. Some results are limits rather than exact numbers.

In assay [1] the test system is HIV-1 (MT-2 cells infected with HIV-1). Put plainly: Inhibition of HIV-induced syncytia formation in MT-2 cells. The class given is cell-based. Particulars: Human immunodeficiency virus 1, MT2; MT-2 cells infected with HIV-1; read-out: INHIBITION OF SYNCYTIA FORMATION ED50. The text has this: This test is described in Quantitative Infectivity Assay for HIV-1 and -2., Nature 332: 469-470, 1988 as well as in AIDS RESEARCH AND HUMAN RETROVIRUSES, Vol. 4, No. 6, pages 449-455 (1988), Mary Ann Liebent, Inc., Publishers; in an article entitled "Nucleotide Dimers Suppress HIV Expression In VITRO". The results (IC50 means the concentration, in μM of drug, required to inhibit syncytia formation to the extent of 50%) of various assay(s) are combined and reported as % inhibition and IC50 (calculated).
ability of various compounds used to inhibit HIVinduced syncytia formatio
in a tissue culture assay using MT2 cells infected with HIV1. This test i
described by Nara et al., Quantitative infectivity assay for HIV1 and 2,
Nature 332, 469-470 (1988), as well as in AIDS RESEARCH AND HUMAN
RETROVIRUSES, vol. 4, No. 6, pages 449-455 (1988), Mary Ann Liebent, Inc.
Publishers, and in an article by Mariano Busso, et al., entitled
"Nucleotide Dimers Suppress HIV Expression In Vitro". The results
(ED50 means the concentration, in μM of drug, required to inhibit
syncytia formation to the extent of 50%) of various assay are combined an
reported in Table I. In comparison, the known commercial compound, AZT,
percent reductions in syncytia formation at concentrations of
approximately 1 μM and 0.5 μM, respectively.

The test system of assay [2] is HIV in primary human peripheral blood lymphocytes. The experiment in a line: Primary PBL assay: inhibition of viral replication (p24 & RNA). Particulars: Human immunodeficiency virus 1, Lymphocyte, primary human lymphocytes infected with HIV, days three and four, read-out: PBL INHIBITION OF VIRAL REPLICATION (p24 & RNA) ED50. It counts as cell-based. The essentials:
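Mitogen-stimulated human PBLs infected with standardized HIV, cultured with drug 4 days at one tenth of the antiproliferative half-maximal concentration. Secreted p24 by capture-ELISA and total HIV RNA by hybridization on days 3 and 4, with viability in parallel; ED50 is the concentration giving 50% reduction in p24.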

The target of assay [3] is T1, viral reverse transcriptase (Human immunodeficiency virus type 1 group M subtype B, UniProt P04585).
T1 construct: Viral reverse transcriptase is found in extracts from bacterial clones; made in house; host or cells: Escherichia coli (extracts of bacterial clones, by the procedure of Larder et al., EMBO J. 6:3133-3137, 1987)
The experiment in a line: Viral reverse transcriptase inhibition, cell free assay. It counts as biochemical, human immunodeficiency virus (HIV-1). The settings on record: read-out: RT % INHIBITION (100 μM), 100 μM; poly rC or poly rG template. The essentials: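 E. coli-expressed HIV-1 RT extract was incubated with inhibitor, 10 μM [35S]-dNTP, poly rC/rG template and oligo dG/dT primer in Tris pH 8.3 with Mg2+ at 37 °C (30 min; 15 min in an alternative version). DNA incorporation was counted on filters and reported as % inhibition (at 100 μM in one version) and IC50.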

The subject of another assay is HIV. The settings on record: cited from earlier work.

For orientation: inhibition means the share of the control response that was lost under treatment. On to `CC(C)Nc1cccnc1N1CCN(C(=O)c2cc3cc(F)ccc3[nH]2)CC1` [Example 25, 1-[5-Fluoroindolyl-2-carbonyl]-4-[3-(1-methylethylamino)-2-pyridinyl]piperazine], for which, in assay [1], the pIC50 was 6.40 to 6.52. The pEC50 in assay [2] was 8.52. Moreover, the inhibition at 100 µM in assay [3] was 96%.
Taken in the same sequence, the figures for `COc1ccc2[nH]c(C(=O)N3CCN(c4ncccc4NC(C)C)CC3)cc2c1` [Example 26, 1-[5-Methoxyindolyl-2-carbonyl]-4-[3-(1-methylethylamino)-2-pyridinyl]piperazine] were 6.30 to 6.52, 8.52 and 97%.
For the molecule `CCNc1cccnc1N1CCN(C(=O)c2cc3ccccc3o2)CC1` [Example 27, 1[Benzofuroyl-2-carbonyl]-4-[3-(ethylamino) -2-pyridinyl]piperazine], the pIC50 in assay [1] was under 9.00. Moreover, the pEC50 in assay [2] is 5.00. In assay [3], the inhibition at 100 µM is 37 to 57%.
For the molecule `CCNc1ccccc1N1CCN(C(=O)c2cc3cc(OC)ccc3[nH]2)CC1` [Example 28, 1-[5-Methoxyindolyl-2-carbonyl]-4-[2-(ethylamino)phenyl]piperazine], the pIC50 in assay [1] was under 4.59. Further, the pEC50 in assay [2] is 6.00 to 7.00. Besides, the inhibition at 100 µM in assay [3] was determined as 70%.
`CCNc1ccccc1N1CCN(C(=O)c2cc3ccccc3[nH]2)CC1` [Example 29, 1-[Indolyl-2-carbonyl]-4-[2-(ethylamino)phenyl]piperazine]: in assay [1], the pIC50 is 5.55. In addition, in assay [2], the pEC50 was 6.00 to 7.00. In addition, the inhibition at 100 µM in assay [3] was 75 to 83%.
`O=C(c1cc2ccccc2[nH]1)N1CCN(c2ncccc2NCC2CC2)CC1` [Example 31, 1-[Indolyl-2-carbonyl]-4-[3-(cyclopropylmethylamino)-2-pyridinyl]piperazine]: the pIC50 in assay [1] is 5.52. The pEC50 in assay [2] was 6.00 to 7.00. In addition, the inhibition at 100 µM in assay [3] is 65 to 71%.
With `CC(C)Nc1cccnc1N1CCN(Cc2cc3cc(F)ccc3[nH]2)CC1` [Example 32, 1-[5-Fluoroindolyl-2-methyl]-4-[3-(1-methylethylamino)-2-pyridinyl]piperazine], in assay [1], the pIC50 was over 6.52. The pEC50 in assay [2] is 8.00 to 8.52. For the same molecule, in assay [3], the inhibition at 100 µM is 96%.
The matching figures for `CCNc1cccnc1N1CCN(C(=O)c2cc3cc(O)ccc3[nH]2)CC1` [Example 37, 1-[5-Hydroxyindolyl-2-carbonyl]-4-[3-(ethylamino)-2-pyridinyl]piperazine]: 6.52, 7.00 and 82 to 95%.
`CCNc1cccnc1N1CCN(C(=O)c2cc3c(C)c(OC)c(C)c(C)c3[nH]2)CC1` [Example 42, 1-[5-Methoxy-4,6,7-trimethylindolyl-2-carbonyl]-4-[3-(ethylamino)-2-pyridinyl]piperazine]: in assay [1], the pIC50 is 5.70. In assay [2], the pEC50 was 5.00. In addition, the inhibition at 100 µM in assay [3] is 63%.
Turning to `CC(C)(C)Nc1cccnc1N1CCN(C(=O)c2cc3ccccc3[nH]2)CC1` [Example 44, 1-[Indolyl-2-carbonyl]-4-[3-(1,1-dimethylethylamino)-2-pyridinyl]piperazine], in assay [1], the pIC50 was 7.00. The pEC50 in assay [2] is 8.00 to 9.00. Besides, the inhibition at 100 µM in assay [3] stood at 89%.
As for `COc1ccc2[nH]c(C(=O)N3CCN(c4ncccc4NC(C)(C)C)CC3)cc2c1` [Example 45, 1-[5-Methoxyindolyl-2-carbonyl]-4-[3-(1,1-dimethylethylamino)-2-pyridinyl]piperazine hydrochloride salt], the pIC50 in assay [1] is 6.30. In addition, the pEC50 in assay [2] is 7.00 to 8.00. Besides, the inhibition at 100 µM in assay [3] was 83 to 91%.
For the molecule `CC(C)(C)Nc1cccnc1N1CCN(C(=O)c2cc3cc(F)ccc3[nH]2)CC1` [Example 46, 1-[5-Fluoroindolyl-2-carbonyl]-4-[3-(1,1-dimethylethylamino)-2-pyridinyl]piperazine hydrochloride salt], the pIC50 in assay [1] was 6.00. In addition, the pEC50 in assay [2] was 8.00 to 9.00. For the same molecule, the inhibition at 100 µM in assay [3] amounted to 89%.
Turning to `CCNc1cccnc1N1CCN(C(=O)c2ccc3ccccc3c2)CC1` [Example 66, 1-[Naphthyl-2-carbonyl]-4-[3-(ethylamino)-2-pyridinyl]-piperazine], the pIC50 in assay [1] was under 3.55. In addition, the pEC50 in assay [2] was 5.00 to 6.00. For the same molecule, the inhibition at 100 µM in assay [3] lay in the range of 68 to 79%.
In the case of `CCNc1cccnc1N1CCN(C(=O)c2ccc[nH]2)CC1` [Example 70, 1-[Pyrrolyl-2-carbonyl]-4-(3-ethylamino-2-pyridinyl)piperazine], in assay [1], the pIC50 was 5.70. The pEC50 in assay [2] is at most 6.00. In addition, the inhibition at 100 µM in assay [3] was 83 to 91%.
For `CCNc1cccnc1N1CCCN(C(=O)c2cc3ccccc3[nH]2)CC1` [Example 81, 1-[Indolyl-2-carbonyl]-4-(3-ethylamino-2-pyridinyl)-1,4-diazepine], the pIC50 in assay [1] was 6.05. Also, the pEC50 in assay [2] was over 9.00. Further, the inhibition at 100 µM in assay [3] lay in the range of 90 to 98%.
Taken in the same sequence, the figures for `CCNc1cccnc1N1CCCN(C(=O)c2cc3cc(F)ccc3[nH]2)CC1` [Example 82, 1-(5-Fluoroindolyl-2-carbonyl)-4-(3-ethylamino-2-pyridinyl)-1,4-diazepine] were 5.00, 7.00 to 8.00 and 87 to 93%.
As for `CC(C)Nc1cccnc1N1CCCN(C(=O)c2cc3ccccc3[nH]2)CC1` [Example 83, 1-(Indolyl-2-carbonyl)-4-[3-(1-methylethylamino)-2-pyridinyl]-1,4-diazepine], the pIC50 in assay [1] is over 6.52. In addition, the pEC50 in assay [2] was over 9.00. For the same molecule, the inhibition at 100 µM in assay [3] lay within 97 to 98%.
With `CC(C)Nc1cccnc1N1CCN(C(=O)c2cc3cc(N=CN(C)C)ccc3[nH]2)CC1` [Example 85, 1-[(5N-(N',N'-Dimethylaminomethylene)aminoindolyl)carbonyl]-4-(3(1-methylethylamino)-2-pyridinyl)piperazine, methane sulfonate], the pIC50 in assay [1] was over 6.70. In addition, the pEC50 in assay [2] is 8.00 to 9.00. The inhibition at 100 µM in assay [3] was 93 to 96%.
`CC(C)Nc1cccnc1N1CCN(C(=O)c2cc3cc(NC(=O)CN)ccc3[nH]2)CC1` [Example 86, 1-[5-(2'-Aminoacetamido)indolyl-2-carbonyl]-4-(3-(1-methylethylamino)-2-pyridinyl)piperazine hydrochloride]: the pIC50 in assay [1] was over 6.70. For the same molecule, the pEC50 in assay [2] was 8.00 to 9.00. Further, in assay [3], the inhibition at 100 µM was 78 to 96%.
The matching figures for `CCNc1cccnc1N1CCN(C(=O)c2cc3cc(OC)c(OC)cc3[nH]2)CC1` [Example 133]: 6.00, 8.00 and 76 to 84%.
Turning to `Nc1ccn([C@H]2CC[C@@H](CO)O2)c(=O)n1` [ddC], the “activity against HIV in vitro” value in the assay with HIV is given as “potent activity”.
As to `O=c1[nH]cnc2c1ncn2[C@H]1CC[C@@H](CO)O1` [ddI], in the assay on HIV, the “activity against HIV in vitro” value was “potent activity”.
